Experimental data as given in US4029731A, “Aminophenyltetralin compounds” (Pfizer Inc., priority 1976, dated 1977).
“And” between values parts separate entries of the source, which are not always exact repeats. Equal entries are not always repeated. Structures can show the parent of a compound that is named as a salt.

Experiments:
[1] = tested on: reserpine-induced hypothermia in the mouse; assay: Reversal of reserpine-induced hypothermia in the mouse; type: in vivo; conditions: 32 mg./kg. i.p., 2 hours after dosing; reserpine 2 mg./kg. s.c. 18 hours before; saline control 25.1° ± 3.2° C.
Method: The 1-amino-4-phenyltetraline final products of Examples III-IX were tested for antidepressant activity by measuring their ability to reverse reserpine-induced hypothermia in the mouse according to the procedure described by B.M. Askew in Life Science, Vol. 2, p. 725 (1963). In this test, all the animals were individually housed in plastic chambers with a cardboard bottom. The mice were injected with reserpine subcutaneously at 2 mg./kg. and retained at an ambient temperature of 20° C. for a period of 18 hours. At this point, their rectal temperatures were initially ascertained and immediately thereafter they were divided into groups of 5-20 animals for testing purposes. Each group then received either saline as a control or the compound to be tested at a dose level of 32 mg./kg., administered intraperitoneally, and the resulting rectal temperatures were measured two hours later. In the table below, the entries are reported as mean rectal temperatures for each compound at the 2-hour mark, together with the number of animals tested in each particular group.

[2] = tested on: spontaneous motor activity in mice; assay: Spontaneous motor activity in mice (actophotometer activity counts); type: in vivo; conditions: for hyperactive response: same conditions, 0.32, 1.0, 3.2, 10 and 32 mg./kg.
Method: A total of seven mice was employed at each dose level tested (viz., at 0.32, 1.0, 3.2, 10 and 32 mg./kg., i.p., respectively) and these mice were separated one to an activity cage. After an initial one-half hour exposure period (for acclimation purposes), each animal in the cage was treated with a sample of the drug intraperitoneally and immediately thereafter returned to said cage, with activity counts every one-half hour being recorded from that point on.

[3] = tested on: norepinephrine (H^3 NE) uptake into the rat heart; assay: Blockade of tritium-labeled norepinephrine (H^3 NE) uptake into the rat heart in vivo; conditions: 32 μmoles/kg. (8.8 mg./kg.) i.p. 20 minutes before i.v. dl-H^3 NE, each entry a mean from a separate experiment
Method: The 1-amino-4-phenyltetralin final products of Examples IV-V and VIII-IX were tested for antidepressant activity by measuring their ability to block tritium-labeled norepinephrine (H^3 NE) uptake into the rat heart in vivo. For these particular studies, rats in groups of five were pretreated with the control vehicle or the drug to be administered at 32 μmoles/kg. (8.8 mg./kg.), via the intraperitoneal route, followed 20 minutes later by intravenous injection of dl-H^3 NE (having a specific activity of 9.5 c/mmole) at a dose level of 5 μc/kg. The rats were then sacrificed one hour ater administration of said agent (H^3 NE), and the norepinephrine (NE) content present in the heart was subsequently isolated therefrom by means of extraction with alumina, followed by repeated elution of said alumina extracts with 0.05N aqueous hydrochloric acid. The specific activity (cpm/μg.) of H^3 NE in the heart was then determined by measuring the amount of radioactivity (using a liquid scintillation counter) and the NE content (fluorimetrically via an Auto-Analyzer of the type manufactured by the Technicon Instruments Corporation of Chauncey, N.Y.) of the aforesaid aqueous eluates. The results obtained in this manner are presented below in the following table, where the individual entries are each made from a separate experiment and constitute mean relative specific activities expressed in terms of percent control: […]

[4] = tested on: norepinephrine uptake into both rat heart and rat brain; reserpine hypothermia in mice; assay: Antidepressant activity (norepinephrine uptake into rat heart and rat brain in vivo; reversal of reserpine hypothermia in mice); conditions: base and hydrochloride acid addition salts
Method: The activity of the compounds of the present invention as antidepressants is determined by a study of their ability to supress norepinephrine uptake into both rat heart and rat brain (in vivo), together with a determination of their ability to bring about a reversal of reserpine hypothermia in mice.

For `CN[C@@H]1CC[C@@H](c2ccccc2)c2ccccc21` (relative stereo) [Trans-isomer of Example IV, trans-dl-N-methyl-4-phenyl-1,2,3,4-tetrahydro-1-naphthylamine hydrochloride], the “Mean Rectal Temperature, Temp. (° C.) ±S.D.” value (from here on “Mean Rectal Temperature”) [1] was 33.5 ± 1.5 °C, the “time course / duration of effect” value ([2]; 32 mg./kg. i.p.) was “especially long-lived” and the “potency compared with dextrorotatory isomer” value ([2]; i.p., spontaneous motor activity) was “somewhat less potent than the aforesaid dextrorotatory isomer”. For the same compound, the “Sp. Activity of Heart H^3 NE (% Control)” value ([3]; hydrochloride) was 14 % Control and 19 % Control and 21 % Control and 25 % Control.

With `CN[C@H]1CC[C@H](c2ccccc2)c2ccccc21` [Trans-l-isomer of Example III, trans-l-N-methyl-4-phenyl-1,2,3,4-tetrahydro-1-naphthylamine hydrochloride] the “Mean Rectal Temperature” value [1] was 27.5 ± 2.9 °C and the stimulant effect ([2]; 10 and 32 mg./kg. (i.p.)) was “little evidence of a stimulant effect”.

In the case of `CC(C)N[C@@H]1CC[C@@H](c2ccccc2)c2ccccc21` (relative stereo) [trans-dl-N-isopropyl-4-phenyl-1,2,3,4-tetrahydro-1naphthylamine], the “degree of antidepressant activity” value [4] is reported as “markedly high degree of antidepressant activity”.

For `CN(C)[C@H]1CC[C@@H](c2ccccc2)c2ccccc21` (relative stereo) [Cis-isomer of Example VIII, cis-dl-N,N-dimethyl-4-phenyl-1,2,3,4-tetrahydro-1-naphthylamine hydrochloride], the “Mean Rectal Temperature” value [1] was 31.4 ± 2.4 °C and the “Sp. Activity of Heart H^3 NE (% Control)” value [3] was 120 % Control.

`CN(C)[C@@H]1CC[C@@H](c2ccccc2)c2ccccc21` (relative stereo) [Trans-isomer of Example VIII, trans-dl-N,N-dimethyl-4-phenyl-1,2,3,4-tetrahydro-1-naphthylamine hydrochloride] was tested, and the “Mean Rectal Temperature” value [1] was 33.5 ± 1.4 °C and the “Sp. Activity of Heart H^3 NE (% Control)” value [3] was 49 % Control.

`N[C@H]1CC[C@@H](c2ccccc2)c2ccccc21` (relative stereo) [Cis-isomer of Example IX, cis-dl-4-phenyl-1,2,3,4-tetrahydro-1-naphthylamine hydrochloride] was tested, and the “Mean Rectal Temperature” value [1] was 30.8 ± 2.6 °C and the “Sp. Activity of Heart H^3 NE (% Control)” value [3] was 93 % Control.

With `N[C@@H]1CC[C@@H](c2ccccc2)c2ccccc21` (relative stereo) [trans-dl-4-phenyl-1,2,3,4-tetrahydro-1-naphthylamine] the “degree of antidepressant activity” value [4] was “markedly high degree of antidepressant activity”.

In the case of `CNCCCN1c2ccccc2CCc2ccccc21` [desmethylimipramine, reference compound], the hyperactive response ([2]; i.p.) is reported as “failed to elicit any hyperactive response whatsoever”.

With `CCN[C@H]1CC[C@@H](c2ccccc2)c2ccccc21` (relative stereo) [Cis-isomer of Example V, cis-dl-N-ethyl-4-phenyl-1,2,3,4-tetrahydro-1-naphthylamine hydrochloride] the “Mean Rectal Temperature” value [1] was 28.0 ± 2.3 °C and the “Sp. Activity of Heart H^3 NE (% Control)” value [3] was 144 % Control.

With `CN(C)[C@@H]1CC[C@@H](c2ccccc2)c2ccccc21` (relative stereo) [trans-dl-N,N-dimethyl-4-phenyl-1,2,3,4-tetrahydro-1-naphthylamine] the “degree of antidepressant activity” value [4] was “markedly high degree of antidepressant activity”.

In the case of `CCN[C@@H]1CC[C@@H](c2ccccc2)c2ccccc21` (relative stereo) [trans-dl-N-ethyl-4-phenyl-1,2,3,4-tetrahydro-1-naphthylamine], the “degree of antidepressant activity” value [4] is reported as “markedly high degree of antidepressant activity”.

With `c1ccc([C@@H]2CC[C@H](NC3CC3)c3ccccc32)cc1` (relative stereo) [Cis-isomer of Example VII, cis-dl-N-cyclopropyl-4-phenyl-1,2,3,4-tetrahydro-1-naphthylamine hydrochloride] the “Mean Rectal Temperature” value [1] was 25.3 ± 4.4 °C.

With `c1ccc([C@@H]2CC[C@@H](NC3CC3)c3ccccc32)cc1` (relative stereo) [Trans-isomer of Example VII, trans-dl-N-cyclopropyl-4-phenyl-1,2,3,4-tetrahydro-1-naphthylamine hydrochloride] the “Mean Rectal Temperature” value [1] was 32.6 ± 0.7 °C.

In the case of `CCN[C@@H]1CC[C@@H](c2ccccc2)c2ccccc21` (relative stereo) [Trans-isomer of Example V, trans-dl-N-ethyl-4-phenyl-1,2,3,4-tetrahydro-1-naphthylamine hydrochloride], the “Mean Rectal Temperature” value [1] is reported as 33.5 ± 0.9 °C and the “Sp. Activity of Heart H^3 NE (% Control)” value ([3]; hydrochloride) is reported as 71 % Control and 75 % Control.

In the case of `c1ccc([C@@H]2CC[C@@H](NC3CC3)c3ccccc32)cc1` (relative stereo) [trans-dl-N-cyclopropyl-4-phenyl-1,2,3,4-tetrahydro-1-naphthylamine], the “degree of antidepressant activity” value [4] is reported as “markedly high degree of antidepressant activity”.

With `CNCCCC1c2ccccc2C=Cc2ccccc21` [protriptlyine, protriptyline, reference compound] the hyperactive response ([2]; i.p.) was “failed to elicit any hyperactive response whatsoever”.

`CC(C)N[C@H]1CC[C@@H](c2ccccc2)c2ccccc21` (relative stereo) [Cis-isomer of Example VI, cis-dl-N-isopropyl-4-phenyl-1,2,3,4-tetrahydro-1-naphthylamine hydrochloride] was tested, and the “Mean Rectal Temperature” value [1] was 27.3 ± 3.6 °C.

`CC(C)N[C@@H]1CC[C@@H](c2ccccc2)c2ccccc21` (relative stereo) [Trans-isomer of Example VI, trans-dl-N-isopropyl-4-phenyl-1,2,3,4-tetrahydro-1-naphthylamine hydrochloride] was tested, and the “Mean Rectal Temperature” value [1] was 32.6 ± 0.7 °C.

In the case of `Cl.N[C@@H]1CC[C@@H](c2ccccc2)c2ccccc21` (relative stereo) [Trans-isomer of Example IX, trans-4-phenyl-1,2,3,4-tetrahydro-1-naphthylamine hydrochloride], the “Mean Rectal Temperature” value [1] is reported as 31.8 ± 2.5 °C and the “Sp. Activity of Heart H^3 NE (% Control)” value ([3]; hydrochloride) is reported as 60 % Control and 66 % Control.

In the case of `CN[C@H]1CC[C@@H](c2ccccc2)c2ccccc21` (relative stereo) [Cis-isomer of Example IV, cis-dl-N-methyl-4-phenyl-1,2,3,4-tetrahydro-1-naphthylamine hydrochloride], the “Mean Rectal Temperature” value [1] is reported as 27.0 ± 3.4 °C and the “Sp. Activity of Heart H^3 NE (% Control)” value ([3]; hydrochloride) is reported as 87 % Control and 104 % Control.
